This note sets out measurements from publication PMC10499603, “Polθ is phosphorylated by PLK1 to repair double-strand breaks in mitosis” (Nature, 2023).

One series has as its system Polθ foci in mitosis. The series can be described thus: Polθ foci in mitosis after siRNA. Format: cell-based, human. The conditions noted are these: siRNA knockdown. As for the experimental part:
(§1) Transfection of siRNA oligonucleotides (Eurofins) was performed using Lipofectamine RNAiMax (ThermoFisher Scientific) following the manufacturer’s instructions.
(§2) Cells grown on coverslips were fixed for 15 min in 2% paraformaldehyde, permeabilized for 10 min in 0.5% Triton X-100, blocked for 30 min in BSA 5%, 0.1% Triton X-100, immunostained for 1 h with primary antibodies, 45 min with secondary antibodies (Highly Cross-Adsorbed Secondary Antibodies Alexa Fluor, ThermoFisher Scientific) and mounted Vectashield mounting medium containing DAPI (Vector Laboratories). The same protocol was applied to mitotic cells, which were collected by shake off and centrifuged onto glass slides using a cytospin centrifuge (400g, 5 min) before fixation. […] Biotin azide-EdU click-it reaction was performed after fixation and permeabilization by incubating cells with a mix of Picolyl biotin, CuSO4, THPTA (Jena Bioscience) and sodium ascorbate in PBS for 30 min in the dark followed by an incubation with streptavidin conjugated Alex fluor 647 antibody (ThermoFisher Scientific) during 1 h at room temperature. Images were taken at 60× or 100× magnification using Upright Spinning disk Confocal Microscope (Roper/Zeiss) or at 40× magnification using DeltaVision (Deconvolution) Image Restoration Microscope. […] Images were analysed using the Fiji software. […]

In series [1] the test system is PLK1. The series can be described thus: In vitro kinase assay of Polθ immunoprecipitates with recombinant PLK1. The settings on record: GFP–Polθ immunoprecipitate, recombinant PLK1 50, 100 or 500 ng, 5 μM ATP, [γ-32P]ATP, 30 min, 30 °C, autoradiography. Format: biochemical. As for the experimental part:
Immunoprecipitates of GFP–Polθ (2 h GFP trap at 4 °C, followed by 2 washes with 150 mM NaCl buffer and 1 wash with 300 mM NaCl) or 1.2 μg of RBER-CDC25tide (Reaction Biology, 0590-0000-1) were resuspended in 30 μl kinase buffer (Cell Signaling, 9802) containing 50, 100 or 500 ng of recombinant PLK1 (Reaction Biology, 0183-0000-1) and 5 μM ATP and 5 μCi [γ-^32P]ATP. After incubation for 30 min at 30 °C, reactions were stopped on ice by the addition of 2× Laemmli buffer and boiling for 5 min at 95 °C. Samples were separated on a 4–8% Tris-acetate gel (or 10% SDS–PAGE for the CDC25 positive control), and phosphorylated ^32P-Polθ and CDC25 were detected by autoradiography.

In series [2] the test system is PLK1. The series can be described thus: Real-time NMR phosphorylation of Polθ fragments by PLK1. Format: biochemical. The settings on record: SOFAST HMQC series, 298 K, 8 h, PLK1 1:200. The procedure:
(§3) The NMR experiments were performed on the Polθ protein fragments (E1424–Q1503) and (E1540–S1660), either ^15N- or ^15N,^13C-labelled, and dissolved in the NMR buffer (with in addition 7% v/v D2O and EDTA-free Protease Inhibitor Cocktail 1× (Roche)). Most experiments were recorded on a 700 MHz Bruker ADVANCE NEO spectrometer equipped with a triple resonance cryogenically cooled probe. ^1HN, ^13Cα, ^13Cβ, ^13CO and ^15N resonance frequencies of the non-phosphorylated fragments were assigned at 283 K using 2D ^1H–^15N SOFAST HMQC, 3D HNCA, 3D HNCACB, 3D CBCA(CO)NH, 3D HNCO, 3D HN(CA)CO and 3D HN(CA)NNH experiments. All 3D experiments were recorded using non uniform sampling (NUS: 40–50%). To monitor phosphorylation by PLK1, either ^15N- or ^15N,^13C-labelled Polθ protein fragments were mixed with PLK1, and a series of 16 2D NMR ^1H-^15N SOFAST HMQC experiments were recorded at 298 K during 8 h, each experiment being a 1,536 × 160 dataset acquired with 80 scans during 30 min[50]. The temperature was then set to 283 K and 2D ^1H–^15N SOFAST HMQC, 3D HNCA, 3D HNCACB, 3D CBCA(CO)NH and 3D HN(CA)NNH experiments were recorded, in order to assign the resonance frequencies of the phosphorylated fragments (here again with NUS at 40–50%). […]

A further series has as its system TOPBP1. The settings on record: peptide on streptavidin beads, HeLa nuclear extract 350 μg, 2 h room temperature, immunoblot.
The test system of a further series is Polθ foci in interphase. The series can be described thus: Polθ foci in interphase after siRNA. Format: cell-based, human. The conditions noted are these: siRNA knockdown. As for the experimental part:
as §1, §2

In series [3] the test system is Polθ foci formation in RPE-1 cells expressing GFP–Polθ. The experiment in a line: siRNA screen for ionizing radiation-induced Polθ foci formation. Format: cell-based, human. The settings on record: 10 nM siRNA, 72 h, then 5 Gy, 2 h; cells with at least 5 Polθ foci; median RZ score of the three siRNAs, three replicate experiments. The text has this:
The Human DDR siRNA library comprising 1,746 single siRNAs representing 582 human genes (3 siRNAs per gene) was obtained from ThermoFisher Scientific (A30089). For controls, siRNAs targeting GL2, kinesin family member 11 (KIF11) and GM130 were used to assess transfection efficacy and induced cell toxicity. FANCD2 siRNA ([…]dT, defined as FANCD2-ctrl in Supplementary Table 1) was used as a positive control inhibiting Polθ foci formation. RPE-1 cells expressing GFP–Polθ (250 cells per well in 384-well plates) were grown overnight. siRNAs were incubated 15 min with 0.05 μl Interferin reagent (Polyplus transfection) and Opti-MEM (ThermoFisher Scientific) prior to being transferred into each 384-well plate wells, to obtain a 10 nM final concentration. Cells were irradiated 72 h after transfection, at a dose of 5 Gy (226 s) with the CIXD irradiator (RadeXp platform, Institut Curie) and incubated at 37 °C, 5% CO2 for 2 h. […] Polθ was then identified as organelles in the nuclei area and quantified by the average intensity of pixels within the defined organelles region. […] Corrected values were normalized as follows: sample median and median absolute deviation (MAD) were calculated from the Interferin-treated population of each internal plate data points (named as Ref pop) and used to compute robust Z-scores[59] […]

In series [4] the target is T1, TOPBP1 BRCT7-8 domain, TOPBP1 fragment (1264–1493) (UniProt Q92547 1264-1493).
T1 construct: source: bacteria protein extracts named for the peptide pull-down
The experiment in a line: NMR titration; 2D 1H-15N spectra of 15N-labelled Polθ (E1424-Q1503), phosphorylated or not, without and with TOPBP1 BRCT7-8 at a 1:0.5 ratio; 25 mM HEPES, 50 mM NaCl, pH 7. The settings on record: both partners purified.

A further series has as its target T2, TOPBP1 BRCT7-8 (Homo sapiens, UniProt Q92547).
T2 construct: GST (N); TEV cleavage site; made in house; host or cells: E. coli BL21 (DE3) Star
The series can be described thus: 2D NMR of 15N-labelled Polθ fragment with TOPBP1 BRCT7-8. Format: binding. The conditions noted are these: 2D 1H–15N, Polθ fragment:BRCT7-8 1:0.5, 25 mM HEPES, 50 mM NaCl, pH 7. The procedure: as §3

T1 sequence (Q92547 1264-1493): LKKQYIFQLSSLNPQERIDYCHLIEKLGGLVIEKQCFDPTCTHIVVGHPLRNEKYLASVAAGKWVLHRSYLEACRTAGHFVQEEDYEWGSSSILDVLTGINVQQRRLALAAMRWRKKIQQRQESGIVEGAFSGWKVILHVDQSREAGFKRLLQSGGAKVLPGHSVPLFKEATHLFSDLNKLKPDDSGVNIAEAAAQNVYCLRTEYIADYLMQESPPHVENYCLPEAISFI
T2 sequence (Q92547 1264-1493): as above

Take “ACAAAUACAUGGCUGGUUAdTdT (guide ACAAAUACAUGGCUGGUUATT; chemistry not fully specified) [TOPBP1, siRNA targeting TOPBP1]”: in the series with Polθ foci in mitosis, the “Polθ foci formation in mitosis” value is “suppressed Polθ foci (and filament) formation only in mitosis”. For the molecule Polθ: DNA polymerase theta, the “phosphorylation of Polθ by PLK1” value in the series with PLK1 [1] was “direct phosphorylation of Polθ by PLK1”. Also, the “kinetics of Polθ phosphorylation by PLK1” value in the series on PLK1 [2] was “fast kinetics of Polθ phosphorylation”. Regarding “biotin-GSGTRQNHpSFIWSGApSFDLSPGLQRILDKVSS [1628-P/S1635-P]”, in the series with TOPBP1, the “interaction with TOPBP1” value is “did not interact with TOPBP1”. Regarding “GUCUCCCAGAAGACAGUGAdTdT (sense GUCUCCCAGAAGACAGUGATT; chemistry not fully specified) [MDC1, siRNA targeting MDC1]”, the “Polθ foci formation in interphase” value in the series with Polθ foci in interphase was “prevented the formation of Polθ foci in both interphase and mitosis”. In addition, the “Robust z score_corrected_Cells multi-foci_MultiFoci (%)” value in series [3] is listed as -2.42. The “Polθ foci formation in mitosis” value with Polθ foci in mitosis was “prevented the formation of Polθ foci in both interphase and mitosis”.

B1: phosphorylated recombinant Polθ fragment (E1424–Q1503) (domain or fragment, human, UniProt O75417 1424-1503, looked up)
chain: EENGLFLKKNEVSVTDSQLNSFLQGYQTQETVKPVILLIPQKRTPTGVEGECLPVPETSLNMSDSLLFDSFSDDYLVKEQ
modifications: 15N-labelled; phosphorylated by PLK1, sites include S1482, S1486, S1488 and S1493
notes: DNA polymerase theta (Polθ), human, residues E1424-Q1503; also called phosphorylated Polθ E1424–Q1503 fragment; Polθ protein fragment F1 (phosphorylated); source: E. coli BL21 (DE3) Star, purified (HisTrap, TEV cleavage, reverse HisTrap), then phosphorylated with PLK1; not shown: GB1, C-terminal, cleaved; His6, C-terminal, cleaved
For the molecule B1, the binding result in series [4] is “binds”.

B2: non-phosphorylated recombinant Polθ fragment (E1424–Q1503) (domain or fragment, human, UniProt O75417 1424-1503, looked up)
chain: B1 chain
modifications: 15N-labelled
notes: DNA polymerase theta (Polθ), human, residues E1424-Q1503; also called non-phosphorylated Polθ fragment from Glu1424 to Gln1503; Polθ protein fragment F1; source: E. coli BL21 (DE3) Star, purified (HisTrap, TEV cleavage, reverse HisTrap); not shown: GB1, C-terminal, cleaved; His6, C-terminal, cleaved
With B2, the binding result in series [4] was “binds”.

B3: non-phosphorylated recombinant Polθ (E1424–Q1503): recombinant Polθ fragment E1424–Q1503 from E. coli (protein, UniProt O75417 1424-1503, looked up, fragment)
chain: B1 chain
As to B3, the “NMR signals lost upon addition of TOPBP1 BRCT7-8” value with TOPBP1 BRCT7-8 is on record as “only a few NMR peaks were lost upon addition of TOPBP1 BRCT7-8”.

B4: phosphorylated recombinant Polθ fragment (E1424–Q1503): recombinant Polθ fragment E1424–Q1503 phosphorylated by PLK1 (protein)
chain: B1 chain
modifications: 15N-labelled; phosphorylated by PLK1, sites include S1482, S1486, S1488 and S1493; left off: GB1, C-terminal, cleaved | His6, C-terminal, cleaved
For the molecule B4, the “NMR signals lost upon addition of TOPBP1 BRCT7-8” value with TOPBP1 BRCT7-8 is “NMR signals corresponding to the Polθ region (p-S1482–L1499) were lost upon addition of BRCT7-8”.
